Where a name gives a salt, the structure may show the parent alone. Read-outs that look alike come from different tables or passages of the source.
Experiments:
male broilers [1] = assay: Study 2: growth performance and carcass responses of male broilers, compounds in feed in the last 14 days prior to slaughter; type: in vivo, chicken
Protocol: Compounds 2, 5, and 9 are used in this study. The study is conducted to evaluate growth performance and carcass responses of male broilers by comparing non-zero dosages of the compounds, versus negative control, administered in the last 14 days prior to slaughter. Table 3 sets out the specific treatment groups.
The route of administration is oral, with the compounds mixed in feed, and provided Ad libitum. The age of the chickens of Day 1 of the study is 35 days old. Body weights are taken on the following days: • 1) Study Day 1 (pen weight) • 2) Study Day 15 (individual animal weights) • 3) Study Day 16 (individual weights on selected animals in animals in blocks 1-4) • 4) Study Day 17 (individual weights on selected animals in animals in blocks 5-8)
(§1) Following collection of final weights, the following processing data is collected (hot weights) on individual animals: • 1) Live weight • 2) Hot carcass weight • 3) Fat pad weight • 4) Hot breast muscle weight • 5) Hot bone in leg weight

[2] = Ames assay (mutagenicity); type: cell-based; conditions: compared with the other compounds tested
[3] = tested on: Hubbard M99 X Cobb chicks; assay: Study 3: dose response in live performance and carcass yields of commercial broilers raised to a small-size market; type: in vivo, chicken
Protocol: This study is conducted to determine the dose response of the Compound 5 measured in live performance and carcass yields of commercial broilers raised to a small-size market when fed a “typical” feed. 2400 Hubbard M99 X Cobb chicks (1200 male/1200 female) are used in this study. Compound 5 is administered at the following doses: 0, 2, 4, 8, and 16 ppm, orally in feed, beginning when the chicks are 24 days of age and ending when the chicks are 38 days of age. The five different Compound 5 doses are administered in a mash diet formulated to meet all nutrient recommendations using only commercially available ingredients.
Parameters measured in the study include ADG (average daily gain), ADFI (average daily feed intake), GE (gain efficiency), and FE (feed efficiency). The birds are measured for carcass (without giblets), breast muscle (boneless-skinless), and leg-quarter weights. The live body weight on the day of processing is used to calculate the yields for carcass, breast meat, and leg quarters for the birds.

Zebrafish = Zebrafish assay (teratogenesis/chromosomal impact); type: in vivo; conditions: compared with the other compounds tested
[4] = tested on: Ross X Ross 708 male chicks; assay: Study 4: live performance and carcass traits of broilers; type: in vivo, chicken; conditions: 16 ppm in feed vs 0 ppm, 34 to 48 days of age
Protocol: (§2) This study is conducted to investigate the effects of Compound 5 on live performance and carcass traits of broilers, and to evaluate the emission of various gases from broilers provision of feed with or without Compound 5. Ross X Ross 708 male chicks are used in this study. Compound 5 is administered at the following doses: 0 and 16 ppm, orally in feed, beginning when the chicks are 34 days of age and ending when the chicks are 48 days of age. The Compound 5 doses are administered in a mash diet formulated to meet all nutrient recommendations using only commercially available ingredients.
(§3) Parameters measured in the study include ADG, ADFI, and FCR. The birds are measured for carcass (without giblets), breast muscle (boneless-skinless), leg-quarter, and abdominal fat weights. The live body weight on the day of processing is used to calculate the yields for carcass, breast meat, and leg quarters for the birds. Also measured are emissions of various gases. Cumulative gas emission are monitored and calculated for the following gases: NH3, NO, NO2, H2S, SO2, methane/non-methane total hydrocarbon, O2, and CO2. The efficacy of Compound 5 is determined by the cumulative emission of these gases, as well as by standardizing these cumulative values to their body, carcass, breast meat, and leg-quarter weights.

[5] = tested on: Ross X Ross 708 male chicks; assay: Study 4: cumulative gas emission from broilers; type: in vivo, chicken; conditions: 16 ppm in feed, 34 to 48 days of age, compared to untreated birds
Protocol: as §2, §3

male broilers [6] = assay: Study 1: growth performance and carcass responses of male broilers, compounds in feed vs positive and negative controls; type: in vivo, chicken; conditions: 14 days; for change in vivo at 15 ppm, 15 µg/mL: Gallus gallus, feed or water, 336 h
Source text: An objective of this study is to evaluate growth performance and carcass responses of male broilers by comparing non-zero dosages of the above compounds versus a positive control (Compound 1) and negative controls. Table 1 sets out the specific treatment groups:
The route of administration is oral, with the compounds mixed in feed, and provided Ad libitum. The age of the chickens of Day 1 of the study is 35 days old. Body weights are taken on the following days: • 1) Study Day 1 (pen weight) • 2) Study Day 14 (individual animal weights) • 3) Study Day 15 (individual weights on selected animals) • 4) Study Day 16 (blocks 1-5) • 5) Study Day 17 (blocks 6-10).
as §1

[7] = 0, 2, 4, 8, 16 ppm in feed, 24 to 38 days of age
[8] = 0, 2, 4, 8, 16 ppm in feed, 24 to 38 days of age, male and female chicks
[9] = 15 ppm in feed ad libitum, male broilers, percent change from negative control, * in cell = not significant

CC(C)(Cc1ccc(Oc2ccccn2)cc1)NC[C@H](O)COc1cccc2c1C(C)(C)C(=O)N2 [Compound 5, 4-[{(2S)-3-({1,1-dimethyl-2-[4-(pyridin-2-yloxy)phenyl]ethyl}amino)-2-hydroxypropyl]oxy}-3,3-dimethyl-1,3-dihydro-2H-indol-2-one hydrochloride]
ADG versus negative control group (male broilers [1]; 3.5 ppm in feed): significantly higher | F/G ratio (feed:gain efficiency) versus negative control group (male broilers [1]; 3.5 ppm in feed): significantly lower | G/F ratio (gain:feed efficiency) versus negative control group (male broilers [1]; 3.5 ppm in feed): significantly higher | hot bone-in leg weight versus negative control group (male broilers [1]; 3.5 ppm in feed): significantly higher | hot breast muscle weight versus negative control group (male broilers [1]; 3.5 ppm in feed): significantly higher | hot carcass weight versus negative control group (male broilers [1]; 3.5 ppm in feed): significantly higher | ADG versus negative control group (male broilers [1]; 7 ppm in feed): significantly higher | F/G ratio (feed:gain efficiency) versus negative control group (male broilers [1]; 7 ppm in feed): significantly lower | G/F ratio (gain:feed efficiency) versus negative control group (male broilers [1]; 7 ppm in feed): significantly higher | hot bone-in leg weight versus negative control group (male broilers [1]; 7 ppm in feed): significantly higher | hot breast muscle weight versus negative control group (male broilers [1]; 7 ppm in feed): significantly higher | hot carcass weight versus negative control group (male broilers [1]; 7 ppm in feed): significantly higher | Ames assay result (mutagenicity) [2]: better results | leg-quarter weight [3, 7]: Improvements are observed | leg-quarter yield [3, 7]: Improvements are observed | FE (feed efficiency) [3, 8]: Improvements are observed | GE (gain efficiency) [3, 8]: Improvements are observed | dose response of the improvements (GE, FE, leg-quarter weight and yield) ([3]; doses 2, 4, 8, 16 ppm in feed): doses at above 2 ppm do not show additional benefit | GE and FE by sex ([3]; male versus female broilers, 24 to 38 days of age): positively impacted only in female broilers | Zebrafish assay result (teratogenesis/chromosomal impact) (Zebrafish): better results | live performance and carcass traits monitored [4]: improvements in all live performance carcass traits monitored, except for ADFI and mortality | reduction in NH3 emission standardized to live weight of the birds or its saleable cuts [5]: more than 30% | reduction of cumulative emission of H2S [5]: 19.0% | reduction of cumulative emission of NH3 [5]: 29.2% | Ave daily live wt gain % inc. (male broilers [6]; [9]): 5.8% | Breast wt % inc. (male broilers [6]; [9]): 6.0% | Feed intake % inc. (male broilers [6]; [9]): 1.1* % | Gain effic % inc. (male broilers [6]; [9]): 4.9% | Leg wt % inc. (male broilers [6]; [9]): 8.1% | Fat Pad wt % dec. (male broilers [6]; 15 ppm in feed ad libitum, male broilers, percent decrease from negative control, * in cell = not significant): 17.4% | fat pad weight (in words) (male broilers [6]; 15 ppm in feed): reduce fat pad weight | feed intake (in words) (male broilers [6]; 15 ppm in feed): significant increase in feed intake | gain versus untreated control (in words) (male broilers [6]; 15 ppm in feed): significantly greater than untreated control | significance of the fat pad weight difference (male broilers [6]; 15 ppm in feed): significant | improvement versus negative control and positive control (in words) (male broilers [6]; 15 ppm in feed, positive control = Compound 1): significantly better improvement than both the negative control and the positive control | change in vivo at 15 ppm, 15 µg/mL (male broilers [6]; 15 ppm in feed ad libitum, male broilers 35 days old at Day 1, percent change from negative control, * in cell = not significant vs negative control, read-out: ADG % inc.): 5.1% | change in vivo at 15 ppm, 15 µg/mL (male broilers [6]; 15 ppm in feed ad libitum, male broilers, percent change from negative control, * in cell = not significant, read-out: Hot carcass wt % inc.): 5.8%

Source: US20150203471A1, “METHODS FOR IMPROVING CHICKEN PRODUCTION” (ELI LILLY AND COMPANY, priority 2012, published 2015)
